# Test results published in US20170121315A1, “HETEROBICYCLICALLY SUBSTITUTED 4-OXOBUTANE ACID DERIVATIVES AND USE THEREOF” (priority 2014, published 2017).
# Experiments:
# Format in all cases: biochemical
# MMP-8 = target: T1, MMP-8 (Homo sapiens, UniProt P22894); test: In vitro MMP-8 inhibition test; conditions: human MMP-8
# T1 construct: purchased R&D Systems 908-MP
# Text: (§1) The MMP-mediated amidolytic cleavage of a suitable peptide substrate leads to an increase in fluorescent light here too. The signal intensity of the fluorescent light is directly proportional to the enzyme activity. The active concentration of a test compound at which half the enzyme is inhibited (50% signal intensity of the fluorescent light) is reported as the IC50 value.
# (§2) Recombinant MMP-8 (R&D Systems, 908-MP) is chemically activated in accordance with the manufacturer's instructions using APMA. 1 μl of the test compound to be analysed (as a solution in DMSO, suitable concentrations e.g. 1 nM to 30 μM) is pipetted into 24 μl of activated enzyme (final concentration e.g. 0.5 nM) in reaction buffer (50 mM Tris/HCl pH 7.5, 10 mM CaCl2, 150 mM NaCl, 0.05% Brij®-35) in a white 384-hole microtiter plate (MTP). The enzymatic reaction is started by adding the intramolecularly quenched Mca-Pro-Leu-Gly-Leu-Dpa(Dnp)-Ala-Arg-NH2 substrate (final concentration e.g. 10 μM; R&D Systems, ES-001), so as to result in a total test volume of 50 μl. The course of the MMP-8 reaction is measured by measuring the fluorescence intensity (excitation 320 nm, emission 410 nm) over a suitable period of time (e.g. over 120 min at a temperature of 32° C.).
# MMP-10 = target: T2, MMP-10 (Homo sapiens, UniProt P09238); test: In vitro MMP-10 inhibition test; conditions: human MMP-10
# T2 construct: purchased R&D Systems 910-MP
# Text: as §1
# as §2, with “MMP-10” for “MMP-8”, “910-MP)” for “908-MP)”, “2” for “0.5”, “Mca-Arg-Pro-Lys-Pro-Val-Glu-Nval-Trp-Arg-Lys(Dnp)-NH2” for “Mca-Pro-Leu-Gly-Leu-Dpa(Dnp)-Ala-Arg-NH2”, “ES-002),” for “ES-001),”
# MMP-14 = target: T3, MMP-14 (Homo sapiens, UniProt P50281); test: In vitro MMP-14 inhibition test; conditions: human MMP-14
# T3 construct: purchased R&D Systems 918-MP
# Text: as §1
# Recombinant MMP-14 (R&D Systems, 918-MP) is enzymatically activated in accordance with the manufacturer's instructions using recombinant furin (R&D Systems, 1503-SE). 1 μl of the test compound to be analysed (as a solution in DMSO, suitable concentrations e.g. 1 nM to 30 μM) is pipetted into 24 μl of activated enzyme (final concentration e.g. 0.5 nM) in reaction buffer (50 mM Tris/HCl pH 7.5, 10 mM CaCl2, 150 mM NaCl, 0.05% Brij®-35) in a white 384-hole microtiter plate (MTP). The enzymatic reaction is started by adding the intramolecularly quenched Mca-Lys-Pro-Leu-Gly-Leu-Dpa(Dnp)-Ala-Arg-NH2 substrate (final concentration e.g. 5 μM; R&D Systems, ES-010), so as to result in a total test volume of 50 μl. The course of the MMP-14 reaction is measured by measuring the fluorescence intensity (excitation 320 nm, emission 410 nm) over a suitable period of time (e.g. over 120 min at a temperature of 32° C.).
# T1 sequence (P22894 101-467): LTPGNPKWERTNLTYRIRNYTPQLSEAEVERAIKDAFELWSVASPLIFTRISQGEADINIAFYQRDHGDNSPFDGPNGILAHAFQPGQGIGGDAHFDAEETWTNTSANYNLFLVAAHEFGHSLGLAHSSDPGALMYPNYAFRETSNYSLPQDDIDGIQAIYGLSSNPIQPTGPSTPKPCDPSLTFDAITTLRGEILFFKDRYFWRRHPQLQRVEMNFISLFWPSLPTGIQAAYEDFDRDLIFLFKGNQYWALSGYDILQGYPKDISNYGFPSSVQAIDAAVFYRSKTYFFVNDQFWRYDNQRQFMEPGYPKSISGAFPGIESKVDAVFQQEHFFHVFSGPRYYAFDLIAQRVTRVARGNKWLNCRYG
# T2 sequence (P09238 99-476): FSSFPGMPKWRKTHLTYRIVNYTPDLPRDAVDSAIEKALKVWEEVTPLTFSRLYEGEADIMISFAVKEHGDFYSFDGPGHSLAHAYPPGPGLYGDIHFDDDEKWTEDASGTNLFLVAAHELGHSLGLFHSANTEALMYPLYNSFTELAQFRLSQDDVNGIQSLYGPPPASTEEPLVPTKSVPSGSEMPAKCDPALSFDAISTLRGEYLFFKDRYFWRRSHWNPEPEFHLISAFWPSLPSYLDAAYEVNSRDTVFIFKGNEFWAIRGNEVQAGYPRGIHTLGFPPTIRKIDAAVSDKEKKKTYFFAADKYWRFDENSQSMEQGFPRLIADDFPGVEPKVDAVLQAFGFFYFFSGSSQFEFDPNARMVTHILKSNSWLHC
Compound,IC50 (MMP-8),IC50 (MMP-10),IC50 (MMP-14)
"O=C(CC(CCn1nnc2ccccc2c1=O)C(=O)O)c1cc2cc(OCCc3ccccc3Cl)ccc2o1 (racemic) [Example 1, (+/−)-4-{5-[2-(2-Chlorophenyl)ethoxy]-1-benzofur-2-yl}-4-oxo-2-[2-(4-oxo-1,2,3-benzotriazin-3(4H)-yl)ethyl]butanoic acid]",> 40 µM,28 µM,> 40 µM
"O=C(CC(CCn1nnc2ccccc2c1=O)C(=O)O)c1cc2cc(OCCc3ccc(Cl)cc3)ccc2o1 (racemic) [Example 2, (+/−)-4-{5-[2-(4-Chlorophenyl)ethoxy]-1-benzofur-2-yl}-4-oxo-2-[2-(4-oxo-1,2,3-benzotriazin-3(4H)-yl)ethyl]butanoic acid]",14 µM,16 µM,> 40 µM
"O=C(CC(CCn1nnc2ccccc2c1=O)C(=O)O)c1cc2cc(OCCC3CCOCC3)ccc2o1 (racemic) [Example 6, (+/−)-4-Oxo-2-[2-(4-oxo-1,2,3-benzotriazin-3(4H)-yl)ethyl]-4-{5-[2-(tetrahydro-2H-pyran-4-yl)ethoxy]-1-benzofur-2-yl}butanoic acid]",3.9 µM,7 µM,37 µM
"O=C(CC(CCn1nnc2ccccc2c1=O)C(=O)O)c1cc2cc(OCCC3CCCC3)ccc2o1 (racemic) [Example 7, (+/−)-4-[5-(2-Cyclopentylethoxy)-1-benzofur-2-yl]-4-oxo-2-[2-(4-oxo-1,2,3-benzotriazin-3(4H)-yl)ethyl]butanoic acid]",22 µM,9.3 µM,> 40 µM
"O=C(CC(CCn1nnc2ccccc2c1=O)C(=O)O)c1cc2cc(OCC3CCCCC3)ccc2o1 (racemic) [Example 8, (+/−)-4-[5-(Cyclohexylmethoxy)-1-benzofur-2-yl]-4-oxo-2-[2-(4-oxo-1,2,3-benzotriazin-3(4H)-yl)ethyl]butanoic acid]",30 µM,> 40 µM,> 40 µM
"CCCCCCCOc1ccc2oc(C(=O)CC(CCn3nnc4ccccc4c3=O)C(=O)O)cc2c1 (racemic) [Example 31, (+/−)-4-[5-(Heptyloxy)-1-benzofur-2-yl]-4-oxo-2-[2-(4-oxo-1,2,3-benzotriazin-3(4H)-yl)ethyl]butanoic acid]",35 µM,> 40 µM,> 40 µM
"O=C(CC(CCn1nnc2ccccc2c1=O)C(=O)O)c1cc2cc(OCCCc3ccccc3)ccc2o1 (racemic) [Example 37, (+/−)-4-Oxo-2-[2-(4-oxo-1,2,3-benzotriazin-3(4H)-yl)ethyl]-4-[5-(3-phenylpropoxy)-1-benzofur-2-yl]butanoic acid]",12 µM,29 µM,> 40 µM
"O=C(CC(CCn1nnc2ccccc2c1=O)C(=O)O)c1cc2cc(OCc3ccc(C(F)(F)F)cc3)ccc2o1 (racemic) [Example 44, (+/−)-4-Oxo-2-[2-(4-oxo-1,2,3-benzotriazin-3(4H)-yl)ethyl]-4-(5-{[4-(trifluoromethyl)benzyl]oxy}-1-benzofur-2-yl)butanoic acid]",28 µM,29 µM,13 µM
"O=C(CC(CCn1nnc2ccccc2c1=O)C(=O)O)c1cc2cc(OCc3cccc(Cl)c3)ccc2o1 (racemic) [Example 50, (+/−)-4-{5-[(3-Chlorobenzyl)oxy]-1-benzofur-2-yl}-4-oxo-2-[2-(4-oxo-1,2,3-benzotriazin-3(4H)-yl)ethyl]butanoic acid]",36 µM,20 µM,> 40 µM
"Cc1cccc(COc2ccc3oc(C(=O)CC(CCn4nnc5ccccc5c4=O)C(=O)O)cc3c2)c1 (racemic) [Example 51, (+/−)-4-{5-[(3-Methylbenzyl)oxy]-1-benzofur-2-yl}-4-oxo-2-[2-(4-oxo-1,2,3-benzotriazin-3(4H)-yl)ethyl]butanoic acid]",34 µM,36 µM,> 40 µM
"CCCOc1ccc2cc(C(=O)CC(CCn3nnc4ccccc4c3=O)C(=O)O)oc2c1 (racemic) [Example 58, (+/−)-4-Oxo-2-[2-(4-oxo-1,2,3-benzotriazin-3(4H)-yl)ethyl]-4-(6-propoxy-1-benzofur-2-yl)butanoic acid]",10 µM,> 40 µM,2.2 µM
"O=C(CC(CCn1nnc2ccccc2c1=O)C(=O)O)c1cc2ccc(OCCCC3CCCCC3)cc2o1 (racemic) [Example 71, (+/−)-4-[6-(3-Cyclohexylpropoxy)-1-benzofur-2-yl]-4-oxo-2-[2-(4-oxo-1,2,3-benzotriazin-3(4H)-yl)ethyl]butanoic acid]",> 40 µM,> 40 µM,> 40 µM
"O=C(CC(CCn1nnc2ccccc2c1=O)C(=O)O)c1coc2cc(OCCC3CCOCC3)ccc12 (racemic) [Example 74, (+/−)-4-Oxo-2-[2-(4-oxo-1,2,3-benzotriazin-3(4H)-yl)ethyl]-4-{6-[2-(tetrahydro-2H-pyran-4-yl)ethoxy]-1-benzofur-3-yl}butanoic acid]",0.37 µM,2.1 µM,1.4 µM
"O=C(CC(CCn1nnc2ccccc2c1=O)C(=O)O)c1coc2cc(OCCC3CCCC3)ccc12 (racemic) [Example 75, (+/−)-4-[6-(2-Cyclopentylethoxy)-1-benzofur-3-yl]-4-oxo-2-[2-(4-oxo-1,2,3-benzotriazin-3(4H)-yl)ethyl]butanoic acid]",3.3 µM,7.7 µM,6.5 µM
"CCCCCOc1ccc2c(C(=O)CC(CCn3nnc4ccccc4c3=O)C(=O)O)coc2c1 (racemic) [Example 89, (+/−)-4-Oxo-2-[2-(4-oxo-1,2,3-benzotriazin-3(4H)-yl)ethyl]-4-[6-(pentyloxy)-1-benzofur-3-yl]butanoic acid]",6.7 µM,22 µM,13 µM
"CCCCCCCOc1ccc2c(C(=O)CC(CCn3nnc4ccccc4c3=O)C(=O)O)coc2c1 (racemic) [Example 101, (+/−)-4-[6-(Heptyloxy)-1-benzofur-3-yl]-4-oxo-2-[2-(4-oxo-1,2,3-benzotriazin-3(4H)-yl)ethyl]butanoic acid]",12 µM,> 40 µM,> 40 µM
"O=C(CC(CCn1nnc2ccccc2c1=O)C(=O)O)c1cc2ccc(OCC3CC3)cc2s1 (racemic) [Example 111, (+/−)-4-[6-(Cyclopropylmethoxy)-1-benzothiophen-2-yl]-4-oxo-2-[2-(4-oxo-1,2,3-benzotriazin-3(4H)-yl)ethyl]butanoic acid]",0.46 µM,4.7 µM,6 µM
"O=C(CC(CCn1nnc2ccccc2c1=O)C(=O)O)c1cc2ccc(OCCc3ccccc3)cc2s1 (racemic) [Example 114, (+/−)-4-Oxo-2-[2-(4-oxo-1,2,3-benzotriazin-3(4H)-yl)ethyl]-4-[6-(2-phenylethoxy)-1-benzothiophen-2-yl]butanoic acid]",3.2 µM,3.4 µM,2.1 µM
"CCCCCOc1ccc2cc(C(=O)CC(CCn3nnc4ccccc4c3=O)C(=O)O)sc2c1 (racemic) [Example 118, (+/−)-4-Oxo-2-[2-(4-oxo-1,2,3-benzotriazin-3(4H)-yl)ethyl]-4-[6-(pentyloxy)-1-benzothiophen-2-yl]butanoic acid]",9.3 µM,10 µM,19 µM
